{"source": "patent US11491132B2", "about": "“Methods for treating thrombocytopenia” (Enzychem Lifesciences Corporation, priority 2014, dated 2022)", "key": {"Complement 3": {"system": "Complement 3", "experiment": "Clinical study: activity of PLAG on Complement 3 in healthy subjects", "type": "in vivo, human", "procedure": "A clinical study is conducted in Gwandong University MyungJi Hospital Clinical Study Center in Republic of Korea with 27 healthy patients to study immune-modulating effect of PLAG. Volunteers are tested for 30 days in vivo as oral administer (500 mg of PLAG per day) under a legitimate clinical approval. Complement 3 is counted using C3 assay kit. The analysis result is shown in FIG. 7, and change of immunoactivity by the administration of PLAG in healthy subjects is shown in Table 8 (effect of PLAG supplementation on immune function of peripheral blood after 4-wk intervention). As shown in FIG. 7 and Table 8, the majority of those who consume PLAG for a month (twenty-six (26) subjects out of 27 patients) show decreased complement 3 (C3), while the control group, who are treated with soybean oil, show both increase and decrease of C3."}, "[1]": {"system": "hematopoietic stem cells and megakaryocytes", "details": "reported in WO 99/26640; cited from earlier work"}, "C3 [2]": {"system": "C3", "experiment": "C3 expression in HepG2 cell line, RT-PCR of mRNA", "type": "cell-based, human", "details": "HepG2 cells, 2 hours", "procedure": "A liver cell line, HepG2 (American Type Culture Collection, ATCC, Rockville, Md.), is incubated and maintained at 37° C., 5% CO2 humid atmosphere in DMEM medium. When HepG2 cells, which are known to produce complement in culture, are treated with PLAG, the activity of complement is reduced effectively, as confirmed by RT-PCR of mRNA. In the RT-PCR, 5×10^5 number of HepG2 cells/ml are distributed into 12 well plates and induced C3 for 12 hours with 10% FCS. Then PLAG is added and further cultured for 2 hours. Cells are harvested and mRNA is isolated and RT-PCR is carried out with specific primer of C3; GAPDH is used as an internal control."}, "STAT1": {"target": "T1, STAT1 (Homo sapiens, UniProt P42224)", "T1 sequence (P42224 1-750)": "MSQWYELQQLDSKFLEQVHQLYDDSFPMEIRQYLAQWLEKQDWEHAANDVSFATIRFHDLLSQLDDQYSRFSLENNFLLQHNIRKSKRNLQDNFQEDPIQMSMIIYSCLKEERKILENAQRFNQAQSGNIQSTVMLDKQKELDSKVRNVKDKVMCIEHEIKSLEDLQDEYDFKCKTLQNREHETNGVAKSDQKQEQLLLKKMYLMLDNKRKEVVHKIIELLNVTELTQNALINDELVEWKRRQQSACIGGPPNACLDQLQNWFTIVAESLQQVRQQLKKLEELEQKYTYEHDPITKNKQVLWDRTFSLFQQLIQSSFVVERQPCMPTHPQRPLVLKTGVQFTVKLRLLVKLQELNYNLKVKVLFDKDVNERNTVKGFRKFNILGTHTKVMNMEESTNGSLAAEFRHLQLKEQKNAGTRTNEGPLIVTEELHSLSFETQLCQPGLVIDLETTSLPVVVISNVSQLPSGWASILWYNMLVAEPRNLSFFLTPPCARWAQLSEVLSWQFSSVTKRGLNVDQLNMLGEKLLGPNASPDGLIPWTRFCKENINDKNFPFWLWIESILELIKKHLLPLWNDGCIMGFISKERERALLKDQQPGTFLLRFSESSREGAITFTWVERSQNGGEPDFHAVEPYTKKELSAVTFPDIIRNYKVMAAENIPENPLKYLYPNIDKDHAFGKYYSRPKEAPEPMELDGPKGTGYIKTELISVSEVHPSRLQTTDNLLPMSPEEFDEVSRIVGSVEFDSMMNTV", "experiment": "Dephosphorylation of STAT1 in U937 cell lysate, western blot", "type": "cell-based", "set-up": "endogenous in cells; host or cells: U937", "details": "U937 cells; PLAG 0.01 to 10 μg/ml; 15 min after 10 ng IFN-γ", "procedure": "Dephosphorylation of STAT6 is examined using anti-phosphorylated STAT6 in U937, A549, and Jurkat cell lysates treated with PLAG concentration from 0.01 to 10 μg/ml. Phosphorylation of STAT6 is induced by treatment with 10 ng/ml of IL-4. Dephosphorylation of STAT1 is examined in the U937 cell lysate treated with PLAG (0.01 to 10 μg/ml). Phosphorylation of STAT1 is induced by 10 ng of IFN-γ treatment. Dephosphorylation of STAT1 and STAT6 is examined at 15 min after stimulation with IFN-γ and IL-4 respectively, in the PLAG pretreated cells. […] The transcriptional activity of STAT6 is decreased by the dephosphorylation of STAT6. […] No effect of PLAG on STAT1 phosphorylation is observed."}, "C3 [3]": {"system": "C3", "experiment": "C3 inhibition by PLAG in HMC-1, ELISA", "type": "cell-based, human", "details": "HMC-1 cells, PLAG 1, 10 and 100 μg/mL for 2 hours, activated 72 hours", "procedure": "In a separate experiment, human mast cells (HMC-1, 1×10^5 cell/ml) are treated with PLAG of various concentrations (1, 10 and 100 μg/mL) for 2 hours. The cells are activated for 72 hours with 10% FBS (Fetal bovine serum) containing IMDM. The decrease of C3 is confirmed by ELISA analysis of the expressed protein."}, "[4]": {"system": "splenic nodules, primitive progenitor cells and megakaryocytes", "experiment": "Colony forming units in spleen (CFUs) assay in heavily irradiated mice", "type": "in vivo", "details": "PLAG 50 mg/kg/d i.p. or p.o.", "procedure": "In order to determine the in vivo effect of PLAG on the recovery of hematopoiesis, a CFUs assay is performed in heavily irradiated mice."}}, "data": [{"smiles": "CCCCC/C=C\\C/C=C\\CCCCCCCC(=O)OC(COC(C)=O)COC(=O)CCCCCCCCCCCCCCC", "note": "(racemic) [PLAG, 1-palmitoyl-2-linoleoyl-3-acetylglycerol]", "values": [{"measurement": "decrease of average concentration of C3 in blood", "setting": "Complement 3; after administration of PLAG, p value <0.001", "result": "about 10 mg/dL"}, {"measurement": "subjects showing decreased complement 3 (C3)", "setting": "Complement 3; out of 27 patients, PLAG for a month", "result": 26, "unit": "subjects"}, {"measurement": "growth-stimulating activities of hematopoietic stem cells and megakaryocytes", "setting": "[1]", "result": "growth-stimulating activities"}, {"measurement": "inhibition of C3 expression (RT-PCR)", "setting": "C3 [2]; PLAG 1 microgram/ml", "result": "somewhat"}, {"measurement": "inhibition of C3 expression (RT-PCR)", "setting": "C3 [2]; PLAG 10 microgram/ml", "result": "entirely"}, {"measurement": "STAT1 phosphorylation", "setting": "STAT1", "result": "No effect"}, {"measurement": "decrease of C3 (expressed protein, ELISA)", "setting": "C3 [3]", "result": "proportional to the concentration of PLAG"}, {"measurement": "number of splenic nodules and numbers of primitive progenitor cells and megakaryocytes", "setting": "[4]", "result": "marked increase"}]}]}
